Source: PMC11220827 (Frontiers in Pharmacology, 2024)
“And” between values parts separate entries of the source, which are not always exact repeats. Identical values can stand only once.

Legend:
MCF-7 cells = experiment: Transcriptomics (TempO-Seq, BMD analysis) in MCF-7 cells; assay type: cell-based, human; conditions: for Lowest median BMD, 3 genes passing all filters / Lowest median BMD, >5 genes passing all filters / BMD relating to estrogen effects: MCF-7, 24 h; for Lowest median BMD, 3 genes passing all filters / Lowest median BMD, >5 genes passing all filters: pathway differs per chemical; for BMD relating to estrogen effects: pathway named in the cell
Description: (§10) These differed with respect to the number of genes passing all filters in each pathway (3 versus 5 genes). […] Therefore, we captured pathways which fulfilled both criteria.
(§11) HepG2 (human hepatoblastoma) , MCF-7 (human breast adenocarcinoma) cells supplied by
(§12) Public Health England European Collection of Cell Cultures (ECACC, Salisbury, UK). Differentiated
(§13) HepaRG cells (HPR116, Lot HPR116239 -TA08) were from Biopredic International (Rennes, France).
(§14) Test chemicals were prepared in DMSO as serial dilutions, resulting in concentrations in media of
(§15) biological replicates were treated with the appropriate dose of co mpound for 24 h prior to cell lysis.
(§16) Biospyder human whole genome panel version 1 (https://biospyder.com).
Gene normalization and analysis
(§17) expression values for each probe were normalized by applying DESEQ2 normalization. A pseudo-
(§18) read-count of 1.0 was added to each normalized expression value, and then the values were log2
(§19) transformed . Analyses performed included Gene and Pathway, Dose Response and Network
(§20) monotonic increasing/decreasing trend were those which confirmed to the criteria : William’s trend
(§21) Those genes were then used in categorical (pathway) analysis for the Gene Ontology (GO) terms and
(§22) REACTOME pathways. Significant dose responsive pathways were determined according to : Fisher’s

COX2 (h) = biological target: T1, COX2 (h) (Homo sapiens, UniProt P35354); experiment: Pharmacology profiling: COX2 (h); assay type: biochemical; conditions: for inhibition at 10 µM: read-out: COX2 (h): % inhibition @10 µM
T1 sequence (P35354 18-604): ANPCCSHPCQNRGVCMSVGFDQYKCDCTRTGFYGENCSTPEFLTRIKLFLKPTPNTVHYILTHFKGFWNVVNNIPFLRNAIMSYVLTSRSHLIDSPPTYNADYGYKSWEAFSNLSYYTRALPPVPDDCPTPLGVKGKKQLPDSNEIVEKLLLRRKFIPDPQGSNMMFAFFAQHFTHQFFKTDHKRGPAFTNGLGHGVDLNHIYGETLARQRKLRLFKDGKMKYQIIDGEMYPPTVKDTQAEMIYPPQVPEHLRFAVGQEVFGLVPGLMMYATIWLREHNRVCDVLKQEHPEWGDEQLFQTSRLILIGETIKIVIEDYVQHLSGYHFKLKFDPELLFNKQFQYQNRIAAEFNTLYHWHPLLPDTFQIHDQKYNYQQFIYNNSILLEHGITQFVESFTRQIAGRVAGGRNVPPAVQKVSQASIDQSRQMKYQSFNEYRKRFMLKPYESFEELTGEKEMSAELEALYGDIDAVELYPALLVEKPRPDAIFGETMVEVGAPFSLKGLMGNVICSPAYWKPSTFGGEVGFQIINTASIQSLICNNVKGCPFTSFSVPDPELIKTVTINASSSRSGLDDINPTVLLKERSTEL
Text: (§1) Cosmetics Europe’s Systemic Toxicity Taskforce (SysTox-TF) has extended the list of targets in an in vitro screen originally described by [Bowes et al. (2012)] to assess the effects of cosmetic chemicals on target molecules. The approach was based on the knowledge that various targets of pharmacological interest have been linked to human adverse drug reactions, and that screening of these has helped the pharma industry in identifying drug candidates with acceptable human safety profiles ([Bowes et al., 2012]; [Scott et al., 2022]). The methods used by the pharma industry were adapted for use in cosmetic chemical NGRA. A final list of 83 target assays were considered suitable for cosmetic chemical safety testing (see Supplementary Materials S1.7). The targets were receptors, ion channels, transporters and enzymes identified by the pharma industry as linked to human adverse drug reactions, supplemented by additional targets that have been reasoned to be linked to systemic toxicities of chemicals in animals. Chemicals that are flagged for a target are tested in follow-up dose-response assays to establish potency of the interaction. […]. [Valentin et al., 2018]; [Dodson et al., 2021]). […].
(§2) assay’s reference compound was set to 100%. For antagonist assays, the basal signal (exposure to fixed concentration of agonist only) was set to 100%. Activity of the samples was scaled accordingly, […]
(§3) Using these graphs, lowest […]
(§4) compound activity for antagonist assays.
(§5) S1.7. Pharmacology profiling assays […]
(§6) reasoned to link to pathological effects. […]
(§7) around the control level. […]
(§8) determine the potency (IC50).
(§9) Supplementary Table S4 Pharmacology profiling assay panel. […]

Adenosine A2A (h) = Adenosine A2A (h) (Homo sapiens, UniProt P29274); experiment: Pharmacology profiling: Adenosine A2A (h) (agonist RL); assay type: binding; conditions: for inhibition at 10 µM: read-out: Adenosine A2A (h) (agonist RL): % inhibition @10 µM
Text: as §1, §2, §3, §4, §5, §6, §7, §8, §9

Adenosine A1 (h) = biological target: T2, Adenosine A1 (h) (Homo sapiens, UniProt P30542); experiment: Pharmacology profiling: Adenosine A1 (h) (antagonist RL); assay type: binding; conditions: for inhibition at 10 µM: read-out: Adenosine A1 (h) (antagonist RL): % inhibition @10 µM
T2 sequence (P30542 1-326): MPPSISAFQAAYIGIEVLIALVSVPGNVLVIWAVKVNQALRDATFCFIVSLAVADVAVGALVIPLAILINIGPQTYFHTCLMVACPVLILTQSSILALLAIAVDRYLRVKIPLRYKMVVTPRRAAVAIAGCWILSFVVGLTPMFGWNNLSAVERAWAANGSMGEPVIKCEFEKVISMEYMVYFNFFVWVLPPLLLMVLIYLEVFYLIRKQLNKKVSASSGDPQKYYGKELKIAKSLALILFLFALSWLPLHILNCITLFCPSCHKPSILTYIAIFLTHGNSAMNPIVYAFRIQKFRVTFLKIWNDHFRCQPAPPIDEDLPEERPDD
Text: (§23) targets. The list of targets included the original panel of 44 targets (including receptors, ion channels,
(§24) transporters and enzymes) recommended by 4 major pharmaceutical companies as significant
reasoned to link to pathological effects. Results showing an inhibition or stimulation higher than 50%
(§25) are considered to represent significant effects (i.e. a “hit”).
and 50% are indicative of weak to moderate effects and results showing an inhibition (or stimulation)
(§26) around the control level. For several targets, additional concentration effect assays were conducted to
(§27) determine the potency (IC50). The concentrations tested (in duplicate) ranged between 30 nM and 100

Monooxygenase = system: Monooxygenase; set-up: method as in ToxCast; conditions: ref ToxCast, cited from earlier work; for AC50: read-out: Thyroid pathway: Monooxygenase (Not AOP), AC50; on Thyroid pathway: Monooxygenase (Not AOP), Call: key: Pos = positive result; Neg = negative result; Inc = uncertain/inconclusive result
ERβ Human Estrogen NHR = biological target: T3, ERβ Human Estrogen NHR (Homo sapiens, UniProt Q92731); experiment: biochemical; assay type: binding
T3 construct: Panlabs (named as assay provider)
Description: (§28) Relative light units (RLUs) of the CALUX assays were analysed as follows. For agonist assays,
(§29) background values (exposure to DMSO only) were subtracted, and the maximum activity of the
(§30) resulting in expression of the data as “percentage of maximum reference response”. Graphs were
(§31) generated using the statistical software package GraphPad Prism V5.03. Using these graphs, lowest
(§32) effect concentrations (LOECs) and PC50 concentrations were determined; LOEC is defined as the
(§33) maximum reference compound activity for agonist assays, and 20% of the maximum reference
(§34) compound activity for antagonist assays. The PC50 is defined as the concentration where the activity
(§35) of the sample equals 50% of the maximum activity of the assay’s reference compound.
(§36) the test compound was divided by the amount of estrogens and androgens produced by the solvent
(§37) control-exposed cells. A sample was considered ‘active’ if it decreased the hormone production 0.8-
as §23, §24, §25, §26, §27

EGFR Human RTK Kinase = EGFR Human RTK Kinase (Homo sapiens, UniProt P00533); experiment: biochemical; conditions: read-out: EGFR Human RTK Kinase Enzyme activity: % inhibition @10 µM
Description: as §28, §29, §30, §31, §32, §33, §34, §35, §36, §37
targets. The list of targets included the original panel of 44 targets (including receptors, ion channels, […]

THRα = system: THRα; set-up: method as in ToxCast; conditions: ref ToxCast; cited from earlier work
TSHR = system: TSHR; set-up: method as in ToxCast; conditions: ref ToxCast; cited from earlier work; further: key: Pos = positive result; Neg = negative result; Inc = uncertain/inconclusive result
HepG2 cells = experiment: Transcriptomics (TempO-Seq, BMD analysis) in HepG2 cells; assay type: cell-based, human; conditions: for BMD relating to estrogen effects: pathway named in the cell; for BMD/NOEC, gene pathway deregulation: HepG2 cells
Description: as §10, §11, §12, §13, §14, §15, §16
Gene normalization and analysis
as §17, §18, §19, §20, §21, §22

Deiodinase = system: Deiodinase; set-up: method as in ToxCast; conditions: ref ToxCast, cited from earlier work; for AC50: read-out: Thyroid pathway: Deiodinase (Not AOP), AC50; on Thyroid pathway: Deiodinase (Not AOP), Call: key: Pos = positive result; Neg = negative result; Inc = uncertain/inconclusive result
Thyroid pathway = system: Thyroid pathway; set-up: method as in ToxCast; conditions: ref ToxCast, cited from earlier work; on Thyroid pathway: Reporter protein Agonist, Call: key: Pos = positive result; Neg = negative result; Inc = uncertain/inconclusive result
dogs = conditions: male and female dogs; ref McClain et al. 2005; cited from earlier work
rats = conditions: cited from earlier work
[1] = HepG2, 24 h, pathway differs per chemical

Sequence of Adenosine A2A (h) (P29274 whole entry): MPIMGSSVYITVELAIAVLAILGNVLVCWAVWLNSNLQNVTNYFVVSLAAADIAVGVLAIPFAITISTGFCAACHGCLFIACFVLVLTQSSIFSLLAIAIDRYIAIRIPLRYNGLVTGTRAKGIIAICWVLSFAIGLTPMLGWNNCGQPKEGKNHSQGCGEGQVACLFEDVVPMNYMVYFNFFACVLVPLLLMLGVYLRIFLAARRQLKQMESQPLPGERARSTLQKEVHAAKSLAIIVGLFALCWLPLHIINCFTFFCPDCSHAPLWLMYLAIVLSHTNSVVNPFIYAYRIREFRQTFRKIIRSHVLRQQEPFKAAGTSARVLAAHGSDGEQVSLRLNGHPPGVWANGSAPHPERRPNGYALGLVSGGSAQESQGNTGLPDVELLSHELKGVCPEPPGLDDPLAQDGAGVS
T3 sequence (Q92731 whole entry): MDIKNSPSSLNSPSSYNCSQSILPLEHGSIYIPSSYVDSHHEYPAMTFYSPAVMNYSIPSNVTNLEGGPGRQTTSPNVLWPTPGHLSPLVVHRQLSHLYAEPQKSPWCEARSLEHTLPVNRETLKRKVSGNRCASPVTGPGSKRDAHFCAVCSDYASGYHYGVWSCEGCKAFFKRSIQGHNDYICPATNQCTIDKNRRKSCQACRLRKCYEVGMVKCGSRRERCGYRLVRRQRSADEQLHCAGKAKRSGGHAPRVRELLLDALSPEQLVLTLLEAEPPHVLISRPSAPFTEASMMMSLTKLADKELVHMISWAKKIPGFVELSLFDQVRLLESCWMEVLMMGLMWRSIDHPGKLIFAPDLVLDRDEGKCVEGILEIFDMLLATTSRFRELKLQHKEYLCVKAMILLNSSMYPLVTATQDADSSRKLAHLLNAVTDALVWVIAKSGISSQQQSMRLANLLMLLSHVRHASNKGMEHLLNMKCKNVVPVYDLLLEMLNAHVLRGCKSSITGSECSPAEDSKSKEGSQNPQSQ
Sequence of EGFR Human RTK Kinase (P00533 25-1210): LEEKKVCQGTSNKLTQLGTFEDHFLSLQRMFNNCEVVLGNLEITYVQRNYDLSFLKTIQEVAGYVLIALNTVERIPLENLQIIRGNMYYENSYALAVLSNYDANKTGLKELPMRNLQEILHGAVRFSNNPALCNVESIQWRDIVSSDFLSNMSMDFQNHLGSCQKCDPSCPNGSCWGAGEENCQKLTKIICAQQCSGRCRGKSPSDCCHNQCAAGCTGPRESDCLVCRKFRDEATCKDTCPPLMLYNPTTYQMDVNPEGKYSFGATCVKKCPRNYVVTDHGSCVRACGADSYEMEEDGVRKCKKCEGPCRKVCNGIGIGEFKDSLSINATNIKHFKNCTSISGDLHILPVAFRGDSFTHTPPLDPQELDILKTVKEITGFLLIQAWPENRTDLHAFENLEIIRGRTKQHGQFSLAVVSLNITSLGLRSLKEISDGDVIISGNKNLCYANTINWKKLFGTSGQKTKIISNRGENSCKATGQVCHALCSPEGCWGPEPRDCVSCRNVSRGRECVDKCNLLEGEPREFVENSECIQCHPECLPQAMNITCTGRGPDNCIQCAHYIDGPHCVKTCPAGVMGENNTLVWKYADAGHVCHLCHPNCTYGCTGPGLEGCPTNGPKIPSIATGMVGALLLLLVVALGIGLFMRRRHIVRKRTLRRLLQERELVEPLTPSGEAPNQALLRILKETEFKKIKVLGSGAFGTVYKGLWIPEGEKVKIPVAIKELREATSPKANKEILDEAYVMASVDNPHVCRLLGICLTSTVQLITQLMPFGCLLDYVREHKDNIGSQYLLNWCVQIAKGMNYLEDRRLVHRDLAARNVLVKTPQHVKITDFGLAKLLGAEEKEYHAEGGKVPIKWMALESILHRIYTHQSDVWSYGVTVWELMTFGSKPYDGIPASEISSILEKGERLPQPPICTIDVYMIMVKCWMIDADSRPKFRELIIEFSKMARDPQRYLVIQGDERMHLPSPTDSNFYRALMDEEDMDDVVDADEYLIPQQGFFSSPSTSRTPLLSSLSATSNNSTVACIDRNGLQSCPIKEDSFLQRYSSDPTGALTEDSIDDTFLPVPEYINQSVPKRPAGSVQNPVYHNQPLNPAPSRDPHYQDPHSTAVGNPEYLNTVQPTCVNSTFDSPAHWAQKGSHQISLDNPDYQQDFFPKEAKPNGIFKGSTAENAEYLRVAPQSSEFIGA

SMILES | Lowest median BMD, 3 genes passing all filters (MCF-7 cells) | Lowest median BMD, >5 genes passing all filters (MCF-7 cells) | BMD relating to estrogen effects (MCF-7 cells) | inhibition at 10 µM (COX2 (h)) | inhibition at 10 µM (Adenosine A2A (h)) | inhibition at 10 µM (Adenosine A1 (h)) | Thyroid pathway: Monooxygenase (Not AOP), Call (Monooxygenase) | AC50 (Monooxygenase) | Thyroid pathway: Regulation of transcription factor activity (TSHR), Call (TSHR) | Lowest median BMD, >5 genes passing all filters (HepG2 cells; [1]) | BMD relating to estrogen effects (HepG2 cells; HepG2, 24 h) | BMD/NOEC, gene pathway deregulation (HepG2 cells) | Thyroid pathway: Deiodinase (Not AOP), Call (Deiodinase) | AC50 (Deiodinase) | also measured
O=c1c(-c2ccc(O)cc2)coc2cc(O)ccc12 [Daidzein, DAIDZEIN] | 0.038 µM | 0.084 µM | 21.3 - response to estrogen ↓ µM | 21.6% | 20.5% | 19.9% | Pos | 9.1 µM | Neg | 30.0 µM | None | 16.2 µM | Pos | 17.2 µM | Lowest median BMD (BMD/NOEC, gene pathway deregulation) (MCF-7 cells; MCF-7 cells): 38 nM; ERβ LOEC (binding to receptor) (ERβ Human Estrogen NHR; pharmacology profiling, LOEC = 10% of maximum reference compound activity): 3.25 nM and 3.2 nM; inhibition at 10 µM (ERβ Human Estrogen NHR; read-out: ERβ Human Estrogen NHR Binding (Agonist): % inhibition @10 µM): 100%; inhibition at 10 µM (EGFR Human RTK Kinase): 17.8%; Thyroid pathway: Receptor binding (THRα), Call (THRα): Neg (Neg = negative result); Lowest median BMD, 3 genes passing all filters (HepG2 cells; [1]): 16.2 µM; Thyroid pathway: Reporter protein Agonist, Call (Thyroid pathway): Neg; Thyroid pathway: Reporter protein Antagonist, Call (Thyroid pathway): Neg; Thyroid pathway: mRNA induction, Call (Thyroid pathway): Neg
O=c1c(-c2ccc(O)cc2)coc2cc(O)cc(O)c12 [Genistein, 5,7-DIHYDROXY-3-(4-HYDROXYPHENYL)-4-BENZOPYRONE] | 0.0065 µM | 0.051 µM | 60.1 - estrogen 2-hydroxylase activity ↓ µM | 53.8% | 52.2% | 53.5% | Pos | 9.44 µM | Neg | 15.7 µM | 53.8 - Estrogen-dependent gene expression ↓ µM | 15.7 µM | Pos | 2.43 µM | IC50 (COX2 (h)): 13.6 µM; IC50 (Adenosine A2A (h)): 10 µM; NOAEL, 4 weeks (dogs): > 500 mg/kg/day; NOAEL, 52 weeks (dogs): > 500 mg/kg/day; IC50 (Adenosine A1 (h)): 9.12 µM; AC50 (Thyroid pathway; read-out: Thyroid pathway: Reporter protein Antagonist, AC50): 13.1 µM; NOAEL, 13 weeks (rats; male and female rats, feed 0, 5, 50 or 500 mg/kg/day, ref McClain et al. 2006): 50 mg/kg/day; NOAEL, 52 weeks (rats; male and female rats, feed, based on mild hepatic effects, ref McClain et al. 2006): 50 mg/kg/day; NOAEL from repeat dose studies (rats; ref McClain et al., 2006): above 50 mg/kg/day
